Reference: patent US20210038587A1, “METHODS AND COMPOSITIONS FOR TREATING NON-ERK MAPK PATHWAY INHIBITOR-RESISTANT CANCERS” (BIOMED VALLEY DISCOVERIES, INC., priority 2013, published 2021)

How the values were obtained:
Type in all cases: cell-based
[1] = system: A375, MIAPaCa-2, HCT116, Colo205, HT-29, and AN3Ca cells; test: Reverse Phase Protein Analysis (RPPA), all six cell lines; settings: 10 μM, 6 hours
Description: (§1) Control wells were treated with DMSO at 0.1% (v/v) for 6 hours prior to cell lysate generation. Samples were then analyzed using reverse-phase protein microarray technology (Theranostics Health).
(§2) Cell lines with common alterations in BRAF and RAS were assayed: BRAF^V600E mutant lines A375, Colo205, and HT29; KRAS^G12C-mutant cell line MIAPACa-2; KRAS^G13D-mutant cell line HCT116; and AN3Ca with atypical HRAS^F82L mutation. Changes in protein levels are shown as a percentage change from dimethyl sulfoxide (DMSO)-treated parental control (FIG. 32A and Table 23).

AN3Ca = test: Reverse Phase Protein Analysis (RPPA); settings: % change from DMSO (matched cell line)
Description: as §1, §2

HT29 = test: Reverse Phase Protein Analysis (RPPA); settings: % change from DMSO (matched cell line)
Description: as §1, §2

Structure (SMILES): Cc1cnc(Nc2ccc(F)cc2Cl)nc1-c1c[nH]c(C(=O)N[C@H](CO)c2cccc(Cl)c2)c1 [Vx-11e]
- pERK1/2 (ERK1/2-T202, -Y204) [1]: markedly increased pERK1/2
- Avg (4ebp1 T70) (AN3Ca): 16.67%
- Avg (Akt S473) (AN3Ca): 56.17%
- Avg (Akt) (AN3Ca): −24.62%
- Avg (Bad S136) (AN3Ca): −3.81%
- Avg (Bad S155) (AN3Ca): 4.59%
- Avg (Bak) (AN3Ca): −1.6%
- Avg (Bax) (AN3Ca): −7.89%
- Avg (Bcl 2) (AN3Ca): −18.77%
- Avg (Bcl2 S70) (AN3Ca): −14.39%
- Avg (Bcl 2 T56) (AN3Ca): −11.73%
- Avg (Bim) (AN3Ca): −1.46%
- Avg (CREB S133) (AN3Ca): 0.16%
- Avg (Caspase 3 CL D175) (AN3Ca): −12.7%
- Avg (Caspase 7 Cl D198) (AN3Ca): −8.09%
- Avg (Chk1) (AN3Ca): −0.46%
- Avg (Chk1 S345) (AN3Ca): −9.54%
- Avg (Cyclin D1) (AN3Ca): −9.59%
- Avg (ERK 1 2) (AN3Ca): −11.27%
- Avg (ERK 1 2 T202 Y204) (AN3Ca): 718.94%
- Avg (MAK1 S360) (AN3Ca): 6.83%
- Avg (Mcl1) (AN3Ca): −4.24%
- Avg (Raptor S792) (AN3Ca): 0.37%
- Avg (Raptor) (AN3Ca): −2.47%
- Avg (Rictor) (AN3Ca): 0.02%
- Avg (Stat1) (AN3Ca): −0.83%
- Avg (Stat3) (AN3Ca): −7.67%
- Avg (bad S112) (AN3Ca): −45.63%
- Avg (c Fos) (AN3Ca): −5.52%
- Avg (c Myc) (AN3Ca): −5.47%
- Avg (mTOR S2448) (AN3Ca): −2.37%
- Avg (mTOR S2481) (AN3Ca): 7.22%
- Avg (mTOR) (AN3Ca): −6.27%
- Avg (p70 S6 Kinase) (AN3Ca): −2.33%
- Avg (p90 RSK S380) (AN3Ca): −28.41%
- Avg(S6 Ribo Prot S235 236) (AN3Ca): −18.54%
- Avg(S6 Ribo Prot S240 244) (AN3Ca): −12.55%
- Avg(Tuberin TSC2 Y1571) (AN3Ca): 3.8%
- Avg(p70 S6 Kinase S371 S394) (AN3Ca): 44.04%
- Avg(p70 S6 Kinase T389 T412) (AN3Ca): 0.56%
- Avg (4ebp1 T70) (HT29): −2.89%
- Avg (Akt S473) (HT29): −20.5%
- Avg (Akt) (HT29): −17.84%
- Avg (Bad S136) (HT29): 5.53%
- Avg (Bad S155) (HT29): −11.26%
- Avg (Bak) (HT29): 2.69%
- Avg (Bax) (HT29): −18.47%
- Avg (Bcl 2) (HT29): −16.73%
- Avg (Bcl2 S70) (HT29): −12.55%
- Avg (Bcl 2 T56) (HT29): −25.01%
- Avg (Bim) (HT29): 3.12%
- Avg (CREB S133) (HT29): 14.16%
- Avg (Caspase 3 CL D175) (HT29): −2.86%
- Avg (Caspase 7 Cl D198) (HT29): 8.28%
- Avg (Chk1) (HT29): 4.68%
- Avg (Chk1 S345) (HT29): 6.44%
- Avg (Cyclin D1) (HT29): −35.2%
- Avg (ERK 1 2) (HT29): 0.24%
- Avg (ERK 1 2 T202 Y204) (HT29): 435.68%
- Avg (MAK1 S360) (HT29): 5.64%
- Avg (Mcl1) (HT29): 1.36%
- Avg (Raptor S792) (HT29): −2.13%
- Avg (Raptor) (HT29): −6.53%
- Avg (Rictor) (HT29): −2.6%
- Avg (Stat1) (HT29): 4.29%
- Avg (Stat3) (HT29): −4.28%
- Avg (bad S112) (HT29): −35.62%
- Avg (c Fos) (HT29): −8.23%
- Avg (c Myc) (HT29): 10.71%
- Avg (mTOR S2448) (HT29): −13.94%
- Avg (mTOR S2481) (HT29): 0.52%
- Avg (mTOR) (HT29): 16.94%
- Avg (p70 S6 Kinase) (HT29): −1.72%
- Avg (p90 RSK S380) (HT29): −43.41%
- Avg(S6 Ribo Prot S235 236) (HT29): −32.8%
- Avg(S6 Ribo Prot S240 244) (HT29): −24.35%
- Avg(Tuberin TSC2 Y1571) (HT29): 2.85%
- Avg(p70 S6 Kinase S371 S394) (HT29): −22.86%
- Avg(p70 S6 Kinase T389 T412) (HT29): −12.31%
